Data reported in US20150125889A1, “IN VITRO DETECTION OF MICROORGANISMS WITH AZOREDUCTASE ACTIVITY” (BIOMÉRIEUX, priority 2012, published 2015).

Test: Test of reduction of Methyl red by food matrices (Example 3)
Parameters: key to Increase in fluorescence over 24 hours: The symbol “−” means that there is no growth or increase in fluorescence of the medium indicating a reduction of the substrate over 24 hours
Conditions: for Increase in fluorescence over 24 hours: 35 mg/l of Methyl red in TSB, 250 nm/395 nm, 35° C.
Protocol: Nine food matrices, some of which have high enzymatic activity (for which the use of Tempo®TVC is not recommended), listed in Table VIII, are tested, in a microtitration plate, in the presence of 35 mg/l of Methyl red in TSB medium to which is added an antimicrobial cocktail combining 200 mg/l of chloramphenicol and 6 mg/l of gentamycin to inhibit the growth of bacteria and fungi. The matrices are tested at different concentrations: 1/400, 1/4000 and […]. To do this, 10 g of matrices are weighed out and dispersed by stomaching in 90 ml of Tryptone-salt solution, which corresponds to a 1/10 dilution, from which the test dilutions are made. The reduction of the substrate and the growth of the microorganisms are monitored using an Infinite® M200 Tecan microplate reader at 35° C. over 24 hours. The reduction of the Methyl red is monitored by reading the fluorescence with the wavelength pair 250 nm/395 nm. The potential growth of microorganisms is monitored by reading the absorbance at 660 nm. The symbol “−” means that there is no growth or increase in fluorescence of the medium indicating a reduction of the substrate over 24 hours.

Question: What does the source list for `CN(C)c1ccc(/N=N/c2ccccc2C(=O)O)cc1` [Methyl red]?
Answer: Increase in fluorescence over 24 hours (Avocado + ATB): −; Increase in fluorescence over 24 hours (Brie de Meaux AOC cheese + ATB): −; Increase in fluorescence over 24 hours (Fresh tagliatelle + ATB): −; Increase in fluorescence over 24 hours (Melon + ATB): −; Increase in fluorescence over 24 hours (Microfiltered whole milk + ATB): −; Increase in fluorescence over 24 hours (Mussels + ATB): −; Increase in fluorescence over 24 hours (Pink shrimps + ATB): −; Increase in fluorescence over 24 hours (Raw calf liver + ATB): −; Increase in fluorescence over 24 hours (Salami + ATB): −; reduction of the Methyl red by the food matrix (text on Table IX) (nine food matrices with antimicrobial cocktail, no growth of microorganisms): no reduction
